In US10213433B2 (AbbVie Inc., priority 2010, dated 2019):
pKi: −log10 of the molar value.

Tested on: not listed separately
Test: log D at pH 7.4 by an HPLC method
Type: physicochemical
Conditions: not given
From the text: Table 2 below presents data for log D (a parameter related to lipophilicity) at pH 7.4, as determined by an HPLC method, for representative compounds.

| chromatographic logD | Structure (SMILES) |
| --- | --- |
| 5.37 | CC1(C)CCC(CN2CCN(c3ccc(C(=O)NS(=O)(=O)c4ccc(NCC5CCOCC5)c([N+](=O)[O-])c4)c(Oc4cnc5[nH]ccc5c4)c3)CC2)=C(c2ccc(Cl)cc2)C1 [Compound 5, 4-(4-{[2-(4-chlorophenyl)-4,4-dimethylcyclohex-1-en-1-yl]methyl}piperazin-1-yl)-N-({3-nitro-4-[(tetrahydro-2H-pyran-4-ylmethyl)amino]phenyl}sulfonyl)-2-(1H-pyrrolo[2,3-b]pyridin-5-yloxy)benzamide] |
| 5.74 | CN1CCN(Nc2ccc(S(=O)(=O)NC(=O)c3ccc(N4CCN(CC5=C(c6ccc(Cl)cc6)CC(C)(C)CC5)CC4)cc3Oc3cnc4[nH]ccc4c3)cc2[N+](=O)[O-])CC1 [Compound 6, 4-(4-{[2-(4-chlorophenyl)-4,4-dimethylcyclohex-1-en-1-yl]methyl}piperazin-1-yl)-N-({4-[(4-methylpiperazin-1-yl)amino]-3-nitrophenyl}sulfonyl)-2-(1H-pyrrolo[2,3-b]pyridin-5-yloxy)benzamide] |
| 5.71 | CC1(C)CCC(CN2CCN(c3ccc(C(=O)NS(=O)(=O)c4ccc(N[C@H]5CC[C@H](N6CCOCC6)CC5)c([N+](=O)[O-])c4)c(Oc4cnc5[nH]ccc5c4)c3)CC2)=C(c2ccc(Cl)cc2)C1 [Compound 9, trans-4-(4-{[2-(4-chlorophenyl)-4,4-dimethylcyclohex-1-en-1-yl]methyl}piperazin-1-yl)-N-({4-[(4-morpholin-4-ylcyclohexyl)amino]-3-nitrophenyl}sulfonyl)-2-(1H-pyrrolo[2,3-b]pyridin-5-yloxy)benzamide] |
| 6.35 | CC1(C)CCC(CN2CCN(c3ccc(C(=O)NS(=O)(=O)c4ccc(NCC5CCOCC5)c([N+](=O)[O-])c4)c(Oc4ccc5[nH]ccc5c4)c3)CC2)=C(c2ccc(Cl)cc2)C1 [Compound 18, 4-(4-{[2-(4-chlorophenyl)-4,4-dimethylcyclohex-1-en-1-yl]methyl}piperazin-1-yl)-2-(1H-indol-5-yloxy)-N-({3-nitro-4-[(tetrahydro-2H-pyran-4-ylmethyl)amino]phenyl}sulfonyl)benzamide] |
| 6.24 | COCCNc1ccc(S(=O)(=O)NC(=O)c2ccc(N3CCN(CC4=C(c5ccc(Cl)cc5)CC(C)(C)CC4)CC3)cc2Oc2ccc3[nH]ccc3c2)cc1[N+](=O)[O-] [Compound 20, 4-(4-{[2-(4-chlorophenyl)-4,4-dimethylcyclohex-1-en-1-yl]methyl}piperazin-1-yl)-2-(1H-indol-5-yloxy)-N-({4-[(2-methoxyethyl)amino]-3-nitrophenyl}sulfonyl)benzamide] |
| 5.86 | O=C(NS(=O)(=O)c1ccc(NCC2CCOCC2)c([N+](=O)[O-])c1)c1ccc(N2CCN(Cc3ccccc3-c3ccc(Cl)cc3)CC2)cc1Oc1ccc2[nH]ccc2c1 [Compound 87, 4-{4-[(4′-chloro-1,1′-biphenyl-2-yl)methyl]piperazin-1-yl}-2-(1H-indol-5-yloxy)-N-({3-nitro-4-[(tetrahydro-2H-pyran-4-ylmethyl)amino]phenyl}sulfonyl)benzamide] |

Target: Bcl-2 protein (Homo sapiens (Human), UniProt P10415)
Test: Bcl-2 binding TR-FRET (Time-Resolved Fluorescence-Resonance-Energy-Transfer) assay
Conditions: inhibition constant for binding to Bcl-2 protein
From the text: The smaller the Ki value, the greater is the binding affinity.

Bcl-2 protein, sequence (P10415 whole entry): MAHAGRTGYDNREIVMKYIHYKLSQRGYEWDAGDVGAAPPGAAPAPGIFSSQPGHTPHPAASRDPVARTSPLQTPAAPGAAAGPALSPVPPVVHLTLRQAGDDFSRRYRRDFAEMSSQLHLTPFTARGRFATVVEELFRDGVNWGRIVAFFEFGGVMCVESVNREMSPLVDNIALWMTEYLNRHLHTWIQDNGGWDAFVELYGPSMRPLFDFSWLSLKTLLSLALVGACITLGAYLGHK

| Structure (SMILES) | pKi |
| --- | --- |
| CC[C@]1(O)CC[C@@H](CNc2ccc(S(=O)(=O)NC(=O)c3ccc(N4CCN(CC5=C(c6ccc(Cl)cc6)CC(C)(C)CC5)CC4)cc3Oc3cnc4[nH]ccc4c3)cc2[N+](=O)[O-])CC1 [Compound 358, 4-(4-{[2-(4-chlorophenyl)-4,4-dimethylcyclohex-1-en-1-yl]methyl}piperazin-1-yl)-N-[(4-{[(trans-4-ethyl-4-hydroxycyclohexyl)methyl]amino}-3-nitrophenyl)sulfonyl]-2-(1H-pyrrolo[2,3-b]pyridin-5-yloxy)benzamide] | > 11.00 |
| CC[C@]1(O)CC[C@H](CNc2ccc(S(=O)(=O)NC(=O)c3ccc(N4CCN(CC5=C(c6ccc(Cl)cc6)CC(C)(C)CC5)CC4)cc3Oc3cnc4[nH]ccc4c3)cc2[N+](=O)[O-])CC1 [Compound 359, 4-(4-{[2-(4-chlorophenyl)-4,4-dimethylcyclohex-1-en-1-yl]methyl}piperazin-1-yl)-N-[(4-{[(cis-4-ethyl-4-hydroxycyclohexyl)methyl]amino}-3-nitrophenyl)sulfonyl]-2-(1H-pyrrolo[2,3-b]pyridin-5-yloxy)benzamide] | > 11.00 |
| COCC1(C)CCC(c2ccc(Cl)cc2)=C(CN2CCN(c3ccc(C(=O)NS(=O)(=O)c4ccc(NCC5CCOCC5)c([N+](=O)[O-])c4)c(Oc4cnc5[nH]ccc5c4)c3)CC2)C1 (stereo not shown) [Compound 360, 4-(4-{[2-(4-chlorophenyl)-5-(methoxymethyl)-5-methylcyclohex-1-en-1-yl]methyl}piperazin-1-yl)-N-({3-nitro-4-[(tetrahydro-2H-pyran-4-ylmethyl)amino]phenyl}sulfonyl)-2-(1H-pyrrolo[2,3-b]pyridin-5-yloxy)benzamide] | > 11.00 |
| CC1(C)CCC(CN2CCN(c3ccc(C(=O)NS(=O)(=O)c4ccc(NC[C@H]5CN(C6COC6)CCO5)c([N+](=O)[O-])c4)c(Oc4cnc5[nH]ccc5c4)c3)CC2)=C(c2ccc(Cl)cc2)C1 [Compound 361, 4-(4-{[2-(4-chlorophenyl)-4,4-dimethylcyclohex-1-en-1-yl]methyl}piperazin-1-yl)-N-{[3-nitro-4-({[(2S)-4-(oxetan-3-yl)morpholin-2-yl]methyl}amino)phenyl]sulfonyl}-2-(1H-pyrrolo[2,3-b]pyridin-5-yloxy)benzamide] | > 11.00 |
| CC1(C)CCC(CN2CCN(c3ccc(C(=O)NS(=O)(=O)c4ccc(OC[C@H]5CC[C@@](C)(O)CC5)c(Cl)c4)c(Oc4cnc5[nH]ccc5c4)c3)CC2)=C(c2ccc(Cl)cc2)C1 [Compound 362, N-({3-chloro-4-[(trans-4-hydroxy-4-methylcyclohexyl)methoxy]phenyl}sulfonyl)-4-(4-{[2-(4-chlorophenyl)-4,4-dimethylcyclohex-1-en-1-yl]methyl}piperazin-1-yl)-2-(1H-pyrrolo[2,3-b]pyridin-5-yloxy)benzamide] | 10.80 |
| CC1(C)CCC(CN2CCN(c3ccc(C(=O)NS(=O)(=O)c4cnc(NCC5CCOCC5)c([N+](=O)[O-])c4)c(Oc4cnc5[nH]ccc5c4)c3)CC2)=C(c2ccc(Cl)cc2)C1 [Compound 364, 4-(4-{[2-(4-chlorophenyl)-4,4-dimethylcyclohex-1-en-1-yl]methyl}piperazin-1-yl)-N-({5-nitro-6-[(tetrahydro-2H-pyran-4-ylmethyl)amino]pyridin-3-yl}sulfonyl)-2-(1H-pyrrolo[2,3-b]pyridin-5-yloxy)benzamide] | > 11.00 |
| CC1(C)CCC(CN2CCN(c3ccc(C(=O)NS(=O)(=O)c4ccc(NCC5CCC6(CC5)COC6)c([N+](=O)[O-])c4)c(Oc4cnc5[nH]ccc5c4)c3)CC2)=C(c2ccc(Cl)cc2)C1 [Compound 365, 4-(4-{[2-(4-chlorophenyl)-4,4-dimethylcyclohex-1-en-1-yl]methyl}piperazin-1-yl)-N-({3-nitro-4-[(2-oxaspiro[3.5]non-7-ylmethyl)amino]phenyl}sulfonyl)-2-(1H-pyrrolo[2,3-b]pyridin-5-yloxy)benzamide] | > 11.00 |
| CC1(C)CCC(CN2CCN(c3ccc(C(=O)NS(=O)(=O)c4cnc(NC[C@H]5CC[C@@](C)(O)CC5)c([N+](=O)[O-])c4)c(Oc4cnc5[nH]ccc5c4)c3)CC2)=C(c2ccc(Cl)cc2)C1 [Compound 371, 4-(4-{[2-(4-chlorophenyl)-4,4-dimethylcyclohex-1-en-1-yl]methyl}piperazin-1-yl)-N-[(6-{[(trans-4-hydroxy-4-methylcyclohexyl)methyl]amino}-5-nitropyridin-3-yl)sulfonyl]-2-(1H-pyrrolo[2,3-b]pyridin-5-yloxy)benzamide] | > 12.00 |
| CC1(C)CCC(CN2CCN(c3ccc(C(=O)NS(=O)(=O)c4ccc(NC(=O)N5CCOCC5)c([N+](=O)[O-])c4)c(Oc4cnc5[nH]ccc5c4)c3)CC2)=C(c2ccc(Cl)cc2)C1 [Compound 373, N-(4-{[4-(4-{[2-(4-chlorophenyl)-4,4-dimethylcyclohex-1-en-1-yl]methyl}piperazin-1-yl)-2-(1H-pyrrolo[2,3-b]pyridin-5-yloxy)benzoyl]sulfamoyl}-2-nitrophenyl)morpholine-4-carboxamide] | > 12.00 |
| COCC1CCC(CNc2ccc(S(=O)(=O)NC(=O)c3ccc(N4CCN(CC5=C(c6ccc(Cl)cc6)CC(C)(C)CC5)CC4)cc3Oc3cnc4[nH]ccc4c3)cc2[N+](=O)[O-])CC1 (stereo not shown) [Compound 374, 4-(4-{[2-(4-chlorophenyl)-4,4-dimethylcyclohex-1-en-1-yl]methyl}piperazin-1-yl)-N-{[4-({[4-(methoxymethyl)cyclohexyl]methyl}amino)-3-nitrophenyl]sulfonyl}-2-(1H-pyrrolo[2,3-b]pyridin-5-yloxy)benzamide] | > 12.00 |
| CC1(C)CCC(CN2CCN(c3ccc(C(=O)NS(=O)(=O)c4cnc(NC[C@H]5CC[C@](C)(O)CC5)c([N+](=O)[O-])c4)c(Oc4cnc5[nH]ccc5c4)c3)CC2)=C(c2ccc(Cl)cc2)C1 [Compound 376, 4-(4-{[2-(4-chlorophenyl)-4,4-dimethylcyclohex-1-en-1-yl]methyl}piperazin-1-yl)-N-[(6-{[(cis-4-hydroxy-4-methylcyclohexyl)methyl]amino}-5-nitropyridin-3-yl)sulfonyl]-2-(1H-pyrrolo[2,3-b]pyridin-5-yloxy)benzamide] | > 12.00 |
| COC1(C)CCC(c2ccc(Cl)cc2)=C(CN2CCN(c3ccc(C(=O)NS(=O)(=O)c4ccc(NC[C@H]5CC[C@@](C)(O)CC5)c([N+](=O)[O-])c4)c(Oc4cnc5[nH]ccc5c4)c3)CC2)C1 (stereo partly drawn) [Compound 377, 4-(4-{[2-(4-chlorophenyl)-5-methoxy-5-methylcyclohex-1-en-1-yl]methyl}piperazin-1-yl)-N-[(4-{[(trans-4-hydroxy-4-methylcyclohexyl)methyl]amino}-3-nitrophenyl)sulfonyl]-2-(1H-pyrrolo[2,3-b]pyridin-5-yloxy)benzamide] | > 12.00 |
| COC1(C)CCC(c2ccc(Cl)cc2)=C(CN2CCN(c3ccc(C(=O)NS(=O)(=O)c4ccc(NCC5CCOCC5)c([N+](=O)[O-])c4)c(Oc4cnc5[nH]ccc5c4)c3)CC2)C1 (stereo not shown) [Compound 378, 4-(4-{[2-(4-chlorophenyl)-5-methoxy-5-methylcyclohex-1-en-1-yl]methyl}piperazin-1-yl)-N-({3-nitro-4-[(tetrahydro-2H-pyran-4-ylmethyl)amino]phenyl}sulfonyl)-2-(1H-pyrrolo[2,3-b]pyridin-5-yloxy)benzamide] | > 12.00 |
